Measurements reported in patent US6528517B1, “Synthesis of quinobenzoxazine analogues with topoisomerase II and quadruplex interactions for use as antineoplastic agents” (Board of Regents, The University of Texas System, priority 1998, dated 2003).

Legend:
B16 melanoma = experiment: Cancer cell growth inhibition assay (MTT); format: cell-based, murine; settings: Mus musculus, B16
Description: (§1) Exponentially growing cells in 0.1 ml medium were seeded on Day 0 in 96-well microtiter plates. On Day 1, 0.1-ml aliquots of medium containing graded concentrations test agent were added in duplicate to the cell plates. After incubation at 37° C. in a humidified incubator, the plates were centrifuged briefly (1-2 min at 1000 rpm), and 100 μl of the growth medium was removed. Cell cultures were incubated with 50 μl of 3-(4,5-dimethylthiazyl-2-yl)-2,5-diphenyltetrazolium bromide MTT, 1 mg/ml in Dubecco's PBS for 4 h at 37° C. The resulting purple formazan precipitate was solubilized with 200 μl of 0.4 N HCl in isopropyl alcohol. Absorbance was quantitated using a Bio-Rad Model 3550 microplate reader at a test wavelength of 570 nm and a reference wavelength of 630 nm. Absorbance values were transferred to a 486 personal computer, and the IC50 values were determined using the computer program EZ-ED50 (Chen et al., 1993).

DU-145 prostate = experiment: Cancer cell growth inhibition assay (MTT); format: cell-based, human; settings: Homo sapiens, DU-145
Description: as §1

topo II-DNA complex = target: T1, topo II-DNA complex (Drosophila melanogaster, UniProt P15348); experiment: Psorospermin competition study (DNA strand breakage assay); format: biochemical
T1 construct: purchased Amersham
T1 sequence (P15348 1-1447): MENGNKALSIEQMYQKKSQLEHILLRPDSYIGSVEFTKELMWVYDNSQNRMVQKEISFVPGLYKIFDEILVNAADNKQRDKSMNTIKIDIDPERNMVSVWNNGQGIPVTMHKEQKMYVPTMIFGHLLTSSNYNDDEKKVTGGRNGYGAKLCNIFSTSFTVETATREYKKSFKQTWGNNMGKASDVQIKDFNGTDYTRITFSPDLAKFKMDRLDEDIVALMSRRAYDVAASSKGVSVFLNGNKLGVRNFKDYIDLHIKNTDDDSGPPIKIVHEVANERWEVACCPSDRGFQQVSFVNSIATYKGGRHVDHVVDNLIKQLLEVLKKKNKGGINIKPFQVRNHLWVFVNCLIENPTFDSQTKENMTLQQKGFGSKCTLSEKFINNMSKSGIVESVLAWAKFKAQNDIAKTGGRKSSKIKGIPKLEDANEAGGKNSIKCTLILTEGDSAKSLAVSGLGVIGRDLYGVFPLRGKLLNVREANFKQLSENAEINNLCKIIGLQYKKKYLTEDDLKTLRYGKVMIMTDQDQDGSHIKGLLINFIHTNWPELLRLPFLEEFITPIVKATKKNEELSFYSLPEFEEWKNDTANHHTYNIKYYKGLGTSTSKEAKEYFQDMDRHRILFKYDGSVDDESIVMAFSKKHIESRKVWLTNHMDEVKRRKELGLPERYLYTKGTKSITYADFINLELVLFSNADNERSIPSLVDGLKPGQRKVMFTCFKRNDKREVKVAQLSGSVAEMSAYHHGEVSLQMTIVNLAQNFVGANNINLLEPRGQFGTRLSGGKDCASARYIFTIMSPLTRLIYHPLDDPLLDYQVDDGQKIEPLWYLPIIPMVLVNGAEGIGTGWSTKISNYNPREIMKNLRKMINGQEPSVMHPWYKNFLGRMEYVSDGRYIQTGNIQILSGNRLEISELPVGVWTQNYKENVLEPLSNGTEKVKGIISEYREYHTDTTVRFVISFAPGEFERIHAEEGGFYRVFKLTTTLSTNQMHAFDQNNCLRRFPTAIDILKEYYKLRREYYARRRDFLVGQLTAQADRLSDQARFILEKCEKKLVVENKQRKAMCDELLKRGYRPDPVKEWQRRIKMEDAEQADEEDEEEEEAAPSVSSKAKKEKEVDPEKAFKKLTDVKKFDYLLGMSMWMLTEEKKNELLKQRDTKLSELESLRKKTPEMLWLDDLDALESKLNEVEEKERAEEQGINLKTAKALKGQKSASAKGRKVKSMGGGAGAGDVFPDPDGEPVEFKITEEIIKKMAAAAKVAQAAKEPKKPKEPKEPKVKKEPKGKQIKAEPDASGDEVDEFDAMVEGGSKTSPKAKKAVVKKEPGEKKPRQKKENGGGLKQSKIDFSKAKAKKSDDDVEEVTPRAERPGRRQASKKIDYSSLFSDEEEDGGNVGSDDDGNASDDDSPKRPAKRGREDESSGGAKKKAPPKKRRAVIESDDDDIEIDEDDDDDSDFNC
Description: 5′^32P-labeled DNA was incubated with Drosophila topo II in the same buffer as the one in the topo II cleavage reaction in the presence of various amounts of either A-62176, Norfloxacin, or both. The incubation reactions took place at 30° C. for 10 min before 10 μM (final concentration) of psorospermin was added to the mixtures. The reactions were continued for an additional 5 min and then terminated by adding 5 μg of calf thymus DNA, followed by heating at 95° C. for 15 min. In the presence of piperidine, this procedure induces strand breakage at the drug modification sites (Hansen et al., 1996). The samples were subjected to phenol/chloroform extraction followed by ethanol precipitation.
In the presence of topo II, the reactivity of psorospermin is enhanced more than 40-fold with the guanine at the +4′ position at site B in FIG. 7 (Kwok et al., 1998a and 1998b). A DNA strand breakage assay was used to locate the position of alkylation of DNA by the epoxide of psorospermin upon intercalation to the base pairs between the +1 and +2 positions at site B within the topo II-DNA complex (Kwok et al., 1998a). Psorospermin has subsequently been used to probe the binding sites for m-AMSA (Kwok et al., 1998a). In the present study, this same assay was performed to determine the binding site of A-62176 on DNA in the presence of topo II.

supercoiled pHOT1 DNA = experiment: DNA unwinding assay; format: biochemical; settings: concentration shifting topoisomers to the middle position between relaxed and supercoiled bands
Description: A 22 μl mixture of 0.25 μg of supercoiled pHOT1 DNA, 5 units of topoisomerase I in topoisomerase I buffer (provided with the kit) was incubated at 37° C. for 30 min. Two μl of various concentrations of drug was added, and the incubation was continued for another 30 min. The reactions were terminated by addition of SDS to 1%. Proteinase K was added to the reaction mixtures to ca. 50 μg/ml, and the reaction mixtures were incubated for 15-20 min at 56° C. After adding 0.1 volume of 10×gel loading buffer, the reaction mixtures were extracted with an equal volume of CIA (Chloroform:isoamyl Alcohol; 24:1). The samples were loaded on an 1% agarous gel that was cast in TPE buffer (36 mM Tris-HCl, pH 7.8, 1 mM EDTA, 30 mM NaH2PO4) and 0.2 μg/ml Chloroquine. The gel was run in TPE buffer at room temperature at 10 volts for 20 h, destained in water for 15 min, stained in 0.05 μg/ml ethidium bromide for 15 min, and destained again in water for 15 min. The gel was then photographed, scanned by FluoroImager, and analyzed by ImageQuaNT software (Molecular Dynamics).

- IC50 (B16 melanoma): 170 ± 10 nM
- IC50 (DU-145 prostate): 160 ± 30 nM
- psorospermin alkylation at site B (competition) (topo II-DNA complex; 0.5-10 μM drug, psorospermin, topo II present): decreased
- inhibition of psorospermin alkylation, in combination with Norfloxacin (topo II-DNA complex; after subtracting the enhancement by Norfloxacin alone): additive effect
Compound: N[C@H]1CCN(c2c(F)cc3c(=O)c(C(=O)O)cn4c3c2Oc2ccccc2-4)C1 [Compound A-62176, 1-(3-aminopyrrolidin-1-yl)-2-fluoro-4-oxo-4H-quino[2,3,4-i,j][1,4]benzoxazine-5-carboxylic acid, reference compound]
- DNA unwinding concn (supercoiled pHOT1 DNA): 50 µM
